Reference: patent US20080027010A1, “Treatment of refractory cancers using Na+/K+-ATPase inhibitors” (Bionaut Pharmaceuticals, Inc., priority 2004, published 2008)
“Also recorded” adds a separate entry of the source.

How the values were obtained:
VEGF = VEGF secretion in tumor cells; format: cell-based; conditions: FIG. 8
Na/K-ATPase = conditions: cited from earlier work
[1] = system: several different cancer cell lines; experiment: Proliferation of several different cancer cell lines; format: cell-based
[2] = mice
[3] = cited from earlier work
[4] = cited from earlier work; remark: listed apart in the source
[5] = system: Caki-1 human renal cancer xenograft; format: in vivo; conditions: xenografted Caki-1 human renal tumors in nude mice; FIG. 23
Excerpt: Female nude mice (nu/nu) between 5 and 6 weeks of age weighing approximately 20 g were implanted subcutaneously (s.c.) by trocar with fragments of human tumors harvested from s.c. grown tumors in nude mice hosts. […] Each group contains 8-10 mice, each of which was ear tagged and followed throughout the experiment.
The administration of drugs or controls began the day the animals were pair-matched (Day 1). […] Mice were weighed and tumor measurements were obtained using calipers twice weekly, starting Day 1. These tumor measurements were converted to mg tumor weight by standard formula, (W^2×L)/2. The experiment is terminated when the control group tumor size reached an average of about 1 gram. Upon termination, the mice were weighed, sacrificed and their tumors excised. The tumors were weighed and the mean tumor weight per group was calculated.

HIF-1α [6] = experiment: HIF-1α Western blot in human tumor cells under hypoxia; format: cell-based
Protocol: For HIF1-alpha Western blots, Hep3B cells were seeded in growth medium at a density of 7×10^6 cells per 100 mm dish. […] Samples were fractionated on 3-8% Tris-Acetate gel (Invitrogen NUPAGE system) by sodium dodecyl sulfate (SDS)-polyacrylamide gel electropherosis and transferred onto nitrocellulose membrane. […] Anti-Beta-actin monoclonal antibody (Abcam, ab6276-100) was used at a 1:5000 dilution with a 30-minute incubation at room temperature.
The cells were placed in hypoxic conditions for 4 hours for HIF1-alpha accumulation.
The cells were lysed and proteins were resolved by SDS-PAGE and transferred to a nylon membrane. The membrane was immunoblotted with anti-HIF-1α and anti-HIF1β MAb, and anti-beta-actin antibodies.
HIF-1α and β-actin protein level was determined by western blotting.

HIF-1α [7] = experiment: HIF-1α induced under normoxia by PHD inhibitor L-mimosone in Hep3B cells, Western blot; format: cell-based, human
Protocol: Abundance of HIF-1α and β-actin was determined by western blotting.

[8] = system: Panc-1 human pancreatic xenograft; experiment: Panc-1 human pancreatic tumor xenograft in nude mice; format: in vivo; conditions: Panc-1 xenografts in nude mice; FIGS. 16, 17, 22
Protocol: The control animals received pumps containing vehicle (50% DMSO in DMEM). The mice treated with standard chemotherapy agent received intra-peritoneal injections of Gemcitabine at 40 mg/kg every 3 days for 4 treatments (q3d×4). Each data point represent average tumor weight (n=8) and error bars indicate SEM.

A549 Sentinel Line = experiment: Sentinel Line beta-galactosidase reporter assay (FACS, FDG loading); format: cell-based, human; conditions: 40 hrs; mitoxantrone 8 nM, paclitaxel 1.5 nM, carboplatin 15 μM, Iressa 4 μM
Protocol: The expression level of beta-galactosidase gene in sentinel lines was determined by using a fluorescent substrate fluorescein di-β-D-Galactopyranside (FDG, Marker Gene Tech, #M0250) introduced into cells by hypotonic shock. Cleavage by beta-galactosidase results in the production of free fluorescein, which is unable to cross the plasma membrane and is trapped inside the beta-gal positive cells. Briefly, the cells to be analyzed are trypsinized, and resuspended in PBS containing 2 mM FDG (diluted from a 10 mM stock prepared in 8:1:1 mixture of water:ethanol:DMSO). The cells were then shocked for 4 minutes at 37° C. and transferred to FACS tubes containing cold 1×PBS on ice. Samples were kept on ice for 30 minutes and analyzed by FACS in FL1 channel.
Sentinel Line cells with beta-galactosidase reporter gene were plated at 1×10^5 cells/10 cm dish. […] After 40 hrs, the cells were trypsinized and the expression level of reporter gene was determined by FDG loading.
The reporter activity was measured by FACS analysis.

Structure (SMILES): C[C@@H]1O[C@@H](O[C@H]2C[C@@H](O)[C@]3(CO)[C@H]4[C@H](O)C[C@]5(C)[C@@H](C6=CC(=O)OC6)CC[C@]5(O)[C@@H]4CC[C@]3(O)C2)[C@H](O)[C@H](O)[C@H]1O [BNC-1, ouabain]
- secretion of the angiogenesis factor VEGF (VEGF): directly or indirectly inhibits
- order of Na/K-ATPase-inhibition (Na/K-ATPase): Ouabain<Digoxin<Proscillaridin
- decrease of concentration effective for inhibiting proliferation of cancer cells ([1]; combination with steroid signal modulator (Casodex)): 5 fold
- IC50 ([1]; proliferation of cancer cell lines, read-out: IC50 across several different cancer cell lines): 80 to 300 nM

Structure (SMILES): C[C@@H]1OC(OC2C=C3CCC4C(CC[C@]5(C)[C@@H](c6ccc(=O)oc6)CC[C@]45O)[C@@]3(C)CC2)[C@H](O)[C@H](O)[C@H]1O (stereo partly drawn) [BNC-4, proscillaridin]
- serum level corresponding to maximum toxic dose (MTD) [2]: about 518 (±121) ng/ml
- toxic serum concentration at day 1 ([2]; steady state delivery): about 518±121 ng/ml
- secretion of the angiogenesis factor VEGF (VEGF): directly or indirectly inhibits
- time of third plasma concentration peak ([3]; after dosing): about 10 hours
- influence of impaired kidney function on clearance ([3]; in vivo): no influence on clearance
- patients taken off treatment because of negative side effects ([4]; 1067 patients observed for up to 3 years): 0.7%
- doses producing typical cardiac glycoside intoxication symptoms ([4]; healthy individuals): above 4 mg p.o./d
- average level of side effects (nausea, seasickness, headache, vomiting, stomach cramps, diarrhea) in clinical reports ([4]; human, in vivo): 5%
- dose taken without any negative side effects ([4]; long-term medication of cardiac illnesses): up to 1.5 mg per day
- reported cases in which therapy could be resumed after a brief hiatus ([4]; review of 47 clinical studies): > 95%
- order of Na/K-ATPase-inhibition (Na/K-ATPase): Ouabain<Digoxin<Proscillaridin
- tumor growth [5]: significantly reduce tumor growth
- HIF-1α expression (HIF-1α [6]; 0.1 μM): completely inhibits HIF-1α expression
- HIF-1α expression (HIF-1α [6]; 1 μM): completely inhibits HIF-1α expression
- HIF-1α accumulation (HIF-1α [7]; 200 μM L-mimosone for 18 h): blocks HIF-1α induction; also recorded: eliminated HIF-1α accumulation
- HIF-1α accumulation (HIF-1α [7]; L-mimosone, low concentration tested): did not appear to have an effect
- tumor growth [8]: significantly reduce tumor growth

Structure (SMILES): C[C@@H]1OC(OC2C=C3CCC4C5=CC[C@H](c6ccc(=O)oc6)[C@@]5(C)CCC4[C@@]3(C)CC2)[C@H](O)[C@H](O)[C@H]1O (stereo partly drawn) [BNC-151]
- HIF-1α expression (HIF-1α [6]; 1 μM): Significant inhibition of HIF-1α expression

Structure (SMILES): N.N.O=C([O-])C1(C(=O)[O-])CCC1.[Pt+2] [Carboplatin]
- cell death and reporter activity in Sentinel Lines (A549 Sentinel Line): increases in cell death and reporter activity

Structure (SMILES): C[C@H]1O[C@@H](O[C@H]2[C@@H](O)C[C@H](O[C@H]3[C@@H](O)C[C@H](O[C@H]4CC[C@@]5(C)[C@H](CC[C@@H]6[C@@H]5C[C@@H](O)[C@]5(C)[C@@H](C7=CC(=O)OC7)CC[C@]65O)C4)O[C@@H]3C)O[C@@H]2C)C[C@H](O)[C@@H]1O [Digoxin]
- order of Na/K-ATPase-inhibition (Na/K-ATPase): Ouabain<Digoxin<Proscillaridin

Structure (SMILES): COc1cc2ncnc(Nc3ccc(F)c(Cl)c3)c2cc1OCCCN1CCOCC1 [Iressa]
- cell death and reporter activity in Sentinel Lines (A549 Sentinel Line): reduction in reporter activity

Structure (SMILES): O=C1c2c(O)ccc(O)c2C(=O)c2c(NCCNCCO)ccc(NCCNCCO)c21 [mitoxanthrone, mitoxantrone]
- cell death and reporter activity in Sentinel Lines (A549 Sentinel Line): increases in cell death and reporter activity

Structure (SMILES): CC(=O)O[C@H]1C(=O)[C@@]2(C)[C@H]([C@H](OC(=O)c3ccccc3)[C@]3(O)C[C@H](OC(=O)[C@H](O)[C@@H](NC(=O)c4ccccc4)c4ccccc4)C(C)=C1C3(C)C)[C@]1(OC(C)=O)CO[C@@H]1C[C@@H]2O [paclitaxel]
- cell death and reporter activity in Sentinel Lines (A549 Sentinel Line): increases in cell death and reporter activity
